Measurements: patent US20140100419A1, “ACTIVE VITAMIN D OR ANALOGS THEREOF FOR USE IN IN VIVO OR IN VITRO FERTILIZATION” (priority 2011, published 2014)

How the values were obtained:
Assay type in all cases: cell-based
[1] = system: human spermatozoa; test: Intracellular calcium [Ca2+]i in fura-2 loaded human spermatozoa; settings: for increase in [Ca2+]i after addition of 1 mM calcium: calcium free media, calcium added after treatment
Protocol: (§1) Calcium measurements and the acrosome reaction were performed on motile spermatozoa isolated after percoll density gradient centrifugation (Supra sperm gradients, (ORIGO)) following the manufacturer's instructions. Briefly, spermatozoa were separated from seminal plasma by centrifugation on a discontinuous percoll gradient using a two-step gradient comprising 2 ml layers of 55% and 80% percoll respectively. Semen was placed on the top of the gradient and centrifuged at 300×g for 25 min. The spermatozoa at the base of the 80% fraction were collected and washed with a 5 ml volume of capacitating medium (CaCl2 1.5 mM, KCl 4.3 mM, NaHCO3 31 mM, HEPES 15 mM, Human Serum Albumin 5 mg/ml, Glucose 4.5 mM, Sodium Pyruvate 0.8 mM, Synthetic Serum Replacement, 0.5 ug/ml human recombinant insulin (Sperm preparation media (ORIGO)) and finally resuspended in capacitating media and used for the following assays of calcium measurements and acrosome reaction. All men were part of the above mentioned ongoing surveillance program of semen quality among young Danish men and included after approval from the local ethical committee (No. H-4-2010-016).
Semen samples were separated by percoll density gradient centrifugation to ensure viable and motile spermatozoa and resuspended in capacitating media for 1.5 hours. Afterwards, loaded with 3 μM of the fluorescent probe (intracellular calcium binding) fura-2/AM (Invitrogen, USA) for 30 min, centrifuged (10 min at 300 g) and washed with Krebs-Ringer buffer (120 mM NaCl, 15 mM NaHCO3, 5 mM KCl, 1 mM CaCl2, 5 mM Na2HPO4, 1 mM MgCl2 pH 7.3). […] Subsequently, 80 μl of the sperm sample was diluted in 920 μl Krebs-Ringer buffer and loaded on polylysine-coated chambers to minimize movement of the spermatozoa (Lab-Tek; Nalge Nunc International, USA). A Zeiss Axiovert 135 microscope equipped with a Zeiss Achrostigmat 40×1.3 NA objective was used to acquire images from the fluorescent probe. Excitation was obtained by a Polychrome Villuminator from Till Photonics (Germany) and images were acquired using a Cool Snap CCD camera (Photometrics, USA) from Robert Scientific (Malaysia). For measurements of [Ca2+]i, the excitation wavelengths were 338 and 380 nm, measuring emission above 510 nm using a cut-off filter. […] After background subtraction, ratio images were formed using MetaFluor software.
All experiments started by using low magnification to ensure visibility of several spermatozoa simultaneously. […] All measurements of [Ca^2+], were based upon evaluation of at least three spermatozoa simultaneously (see exact number in figure legends), and were repeated in at least three separate experiments. We used 10 different semen donors to ensure that all experiments were reproduced on semen samples from at least two different men.

[2] = system: human spermatozoa; test: Sperm motility (ABC) in semen samples exposed to 1,25(OH)2D3
Protocol: The participants produced a semen sample by masturbation. Self-reported information of duration of ejaculation abstinence was obtained. Trained technicians conducted semen analysis and a detailed description of assessment of semen samples has previously been published. Semen volume was estimated by weighing. For sperm motility assessment, duplicates of 10 μl of well-mixed semen were placed on a glass slide, examined on a heating stage kept at 37° C., under a microscope at ×400 magnification, and spermatozoa were classified as progressive motile (WHO class A+B), non-progressive motile (class C) or immotile (class D). The average of the two motility assessments was used. For the assessment of the sperm concentration the samples were diluted in a solution of 0.6 mol/l NaHCO3 and 0.4% (v/v) formaldehyde in distilled water, and subsequently assessed using Bürker-Türk haemocytometer. Only spermatozoa with tails were counted. Finally, smears were prepared, Papanicolaou stained and spermatozoa morphology assessed according to strict criteria (Menkveld et al., 1990).
Semen samples for the in vitro studies were obtained from 40 men from the general population, who were investigated between October 2009 and December 2010. Their semen samples were assessed as described above. […] Motility assessment was conducted in 17 samples (in duplicates) under non-capacitating conditions (in their seminal plasma), and 3 samples were also analyzed in capacitating conditions. 7 consecutively included men were used to investigate a dose-response relationship between VD and sperm motility.

[3] = system: human spermatozoa; test: Acrosome reaction (PSA-FITC staining)
Protocol: as §1
Acrosome status was assessed according to a modified version of the method described by Cross et al. 1986. Motile spermatozoa were isolated by percoll gradient centrifugation, washed twice with 5 ml 0.9% sodium chloride followed by centrifugation at 300×g for 10 min. […] The smear and cytospin were fixed in 96% ethanol for 5 min after air drying, washed in distilled water and stained for minimum 2 hours with Pisum sativum agglutinin labelled with fluorescein isothiocyanate (Sigma Aldrich) in Dulbecco phosphate buffered saline at 4° C. Finally, the slides were washed in distilled water and mounted with Vectrashield (H-1080 Vectar Laboratories) and 200 spermatozoa were counted on each slide using a fluorescence microscope at a magnification of 400×. The mean percentage of acrosome-reacted spermatozoa of the two slides was calculated. When more than half the head of a spermatozoon was brightly and uniformly fluorescent, the acrosome was considered to be intact. Spermatozoa without fluorescence or with a fluorescing band limited to the equatorial segment were considered to be acrosome-reacted. Spermatozoa with a fluorescing band limited to the equatorial segment were named eq-AR. The person assessing the slides was blinded to the treatment of the sample.

[4] = system: zona pellucida (ZP) of human oocytes; test: Human sperm-zona pellucida interaction (sperm-egg binding) test
Text: We used the Human sperm-zona pellucida interaction test that is designed to determine the capacity of sperm to interact with the zona pellucida (ZP) of human oocytes and serves thus as a test for evaluating fertility potential of human spermatozoa. The tests provide important diagnostic information about sperm fertilising ability and we used a modified version of the test developed by Liu and Baker (Liu and Baker hum reprod 1999 Defective sperm-zona pellucida interaction: a major cause of failure of fertilization in clinical in-vitro fertilization).
If the oocyte had sperm bound to the ZP from the IVF insemination, these were removed by aspiration using a fine glass pipette with an inner diameter (120 μm) slightly smaller than the oocyte diameter. […] Oocytes with >10 sperm penetrating the ZP were not used. Also degenerate, activated or morphologically abnormal oocytes were not used for the sperm-ZP interaction test. Oocytes were pooled from several patients and used for the test on the same day or kept in the incubator and used within the next 20 days. Between 15-30 oocytes was placed in 1 ml salt solution (storage 2-4 weeks). Salt-stored human oocytes were washed with gamete buffer (COOK) with four changes in 3 hours before they were used for the sperm-egg binding test.
Semen samples from five donors were used. […] The washed sperm pellet was resuspended with sEBSS to a sperm concentration of 2×10^6/ml for the ZP-interaction test. For the assessment of the sperm concentration the samples were diluted following the manufactures instruction and subsequently determined using SP-100 (Chemometec).
For the sperm-ZP interaction tests, either high quality sperm or total sperm sample (2×10^6) in 0.5 ml of medium (+/−1 nM Calcitriol) were incubated with three oocytes for 2 h at 37° C. in 5% CO2 in air. After incubation, the oocytes were transferred to sEBSS and washed by repeated aspiration with a glass pipette (inside diameter approximately 250 μm) to dislodge sperm loosely adhering to the surface of the ZP. Sperm binding to all oocytes was assessed.

[5] = system: human spermatozoa; test: Sperm motility of washed spermatozoa with or without percoll gradient centrifugation
[6] = calcium free media with 5 μM EGTA
[7] = 1 nM 1,25(OH)2D3 after pretreatment with nifedipine 10 μM

For `C=C1/C(=C\C=C2/CCC[C@]3(C)[C@@H]([C@H](C)CCCC(C)(C)O)CC[C@@H]23)C[C@@H](O)C[C@H]1O` [1β,25(OH)2D3, 1β,25-(OH)2D3], the “effect on calcium effect of progesterone” value ([1]; Example 4) was “did not abrogate”, the “effect on calcium response to 1,25(OH)2D3” value ([1]; Example 4, non-genomic competitive antagonist) was “abrogated the response to 1,25(OH)2D3 completely” and the “effect of pretreatment on calcium response to 1,25(OH)2D3 (VD response)” value ([1]; pretreatment with 1-40 μM 1β,25(OH)2D3) was “blocked completely”.

In the case of `C[C@H](CCC(=O)O)C[C@H](C)C[C@H](C)C(=O)/C=C(\O)[C@H](C)C[C@H](C)C/C=C/[C@@H](C)[C@@H](O)[C@@H](C)[C@@H](O)C[C@@H]1CC[C@@](C)([C@H]2CC[C@@](C)([C@@H](C)O)O2)O1` [Ionomycin, ionomycin], the “amplitude of calcium response from baseline” value ([1]; ionomycin 500 nM, calcium free media with EGTA) is reported as less than 3 fold.

In the case of `CC(=O)[C@H]1CC[C@H]2[C@@H]3CCC4=CC(=O)CC[C@]4(C)[C@H]3CC[C@]12C` [progesterone], the “time until calcium level restored to baseline after initiation of treatment” value ([1]; 10 μM progesterone after nifedipine 10 μM pretreatment) is reported as 9 min, the “increase in [Ca2+]i” value [1, 6] is reported as “could not induce an increase” and the “increase in [Ca2+]i after addition of 1 mM calcium” value [1] is reported as “comparable to the increase observed in the normal calcium containing Krebs Ringer solution”.

In the case of `C=C1/C(=C\C=C2/CCC[C@]3(C)[C@@H]([C@H](C)/C=C/[C@@H](O)C4(C(=O)OCCCC)CC4)CC[C@@H]23)C[C@@H](O)C[C@@H]1O` [ZK159222], the “effect on calcium increase by 1,25(OH)2D3” value ([1]; Example 4, pre-treatment with 100 nM ZK159222 (FIG. 5)) is reported as “unable to influence” and the “effect of antagonist on calcium response to 1,25(OH)2D3” value ([1]; ZK159222 0.1-100 μM, data not shown) is reported as “unable to abrogate or suppress”.

For `COc1ccc2c(c1)CC[C@@H]1[C@@H]2CC[C@]2(C)[C@@H](NCCCCCCN3C(=O)C=CC3=O)CC[C@@H]12` [U73122, 1-[6-[[17fi-3-methoxyestra-1,3,5(10)-trien-17-yl]amino]hexyl]-lH-pyrrole-2,5-dione], the “increase of baseline [Ca2+]i” value ([1]; 10 μM U73122) was “more than 5 fold”, the “proportion of spermatozoa with increased baseline [Ca2+]i” value ([1]; 10 μM U73122) was greater than 80% and the “effect of PLC inhibition on the effect of progesterone” value ([1]; U73122, data not shown) was “unable to abrogate”.

`C=C1CC[C@H](O)C/C1=C/C=C1\CCC[C@]2(C)[C@@H]([C@H](C)CCCC(C)(C)O)CC[C@@H]12` [25-OH D3, 25-OH Vitamin D3] was tested, and the “increase in [Ca2+]i” value ([1]; 25-OH D3 100 nM) was “unable to elicit an increase”, the “increase of [Ca2+]i” value ([1]; Example 4, 25-OHD3 in the nanomolar range) was “unable to increase [Ca^2+], substantially” and the “increase of [Ca2+]i” value ([1]; Example 4, higher concentrations of 25-OHD3 (1 μM, FIG. 7)) was “marked but delayed increase”.

With `C=C1/C(=C\C=C2/CCC[C@]3(C)[C@@H]([C@H](C)CCCC(C)(C)O)CC[C@@H]23)C[C@@H](O)C[C@@H]1O` [1,25(OH)2D3, 1,25-dihydroxycholecalciferol] the “threshold for the all-or-nothing calcium response” value [1] was 10 to 50 µM, the “time until calcium levels restore back to baseline” value [1] was no more than 2 min and the “max amplitude relative to max amplitude elicited by 10 μM progesterone” value ([1]; 1 nM 1,25(OH)2D3) was 40-80%. For the same compound, the “maximum amplitude of calcium increase versus baseline calcium level” value ([1]; 1 nM 1,25(OH)2D3) was 5-10 fold, the “amplitude of calcium response versus capacitating media” value ([1]; 1 nM 1,25(OH)2D3, non-capacitating media, data not shown) was “lower amplitude” and the “length of repolarisation phase” value [1, 7] was 4 min. The “maximum amplitude of calcium increase versus baseline” value [1, 7] was 7 fold, the “increase in intracellular calcium ([Ca2+]i) from baseline calcium level” value ([1]; 1,25(OH)2D3 100 μM-10 μM (so in the source), motile spermatozoa) was 5-10 fold and the calcium response ([1]; 1,25(OH)2D3 added 9 min after initiation of thapsigargin 4 μM) was “unable to elicit a substantial calcium response”. The calcium response ([1]; 1,25(OH)2D3 in spermatozoa exposed to 2 μM U73122) was “unable to induce a rapid increase”, the “time to max amplitude of the normal rapid calcium response” value ([1]; 1,25(OH)2D3 without inhibitor) was “within one minute” and the “duration of plateau phase of [Ca2+]i” value ([1]; <10 nM 1,25(OH)2D3) was “up to 50 sec”. For the same compound, the “change in Ca2+ concentration” value ([1]; Example 4, 1 nM (FIG. 4)) was “instant increase”, the “start of calcium increase in the neck region” value ([1]; after addition of 1,25(OH)2D3) was no more than 5 s and the “increase in [Ca2+]i” value [1, 6] was “could not induce an increase”. For the same compound, the calcium response ([1]; calcium free media without EGTA) was “marked response”, the “increase in [Ca2+]i after addition of 1 mM calcium” value [1] was “comparable to the increase observed in the normal calcium containing Krebs Ringer solution” and the “duration of plateau phase of [Ca2+]i” value ([1]; higher 1,25(OH)2D3 concentrations) was 50 to 300 s. For the same compound, the “duration of intracellular calcium increase before return to baseline” value ([1]; physiological concentrations) was “up to 90 seconds”, the “effect of pre-treatment on the calcium effect of progesterone” value ([1]; pre-treatment with 1,25(OH)2D3, then 10 μM progesterone) was “could not be abrogated” and the “median decrease in sperm motility compared with control” value ([2]; 10^-5M) was 15%. The “median increase in sperm motility” value ([2]; 10^-9M, p=0.006) was 7%, the “increase in median sperm motility (ABC)” value ([2]; 10^-14M to 10^-9M, non-capacitating conditions) was 2-7% and the “increase in mean sperm motility” value ([2]; 17 men, 10^-9M for 30 min at room temperature, p=0.010) was 2.9%. For the same compound, the “sperm motility compared with control” value ([2]; concentrations above 10^-7M) was “decreased motility compared with control”, the “median acrosome reacted spermatozoa, VD group” value ([3]; 10^-9 M, capacitating conditions (control group 12%)) was 21% and the “median percentage of spermatozoa with an equatorial band (eq. AR)” value ([3]; 10^-9 M, capacitating conditions (from 4.7%), p=0.214) was 5.3%. For the same compound, the “average increase in number of acrosome reacted spermatozoa” value ([3]; 10^-9 M, capacitating conditions, p=0.024) was 6%, the “acrosome reacted spermatozoa, VD treated” value ([3]; non-capacitating conditions (NaCl), 6 men (control 3.7%), not significant) was 4.2% and the “mean number of spermatozoa bound to each oocyte” value ([4]; 1 nM, 5 donors, all pretreatments (vehicle mean 52)) was 74. For the same compound, the “mean difference in sperm bound versus vehicle” value ([4]; 1 nM, 5 donors, all pretreatments, p=0.022) was 43%, the “average improvement of sperm-egg binding versus vehicle” value ([4]; 1 nM, isolated with percoll gradient centrifugation, p=0.027) was 28% and the “difference in sperm-egg binding versus vehicle” value ([4]; 1 nM, not separated by percoll gradient centrifugation, p=0.139) was 60%. For the same compound, the “increase in sperm-egg binding” value ([4]; patient 3 (low semen quality), following percoll gradient centrifugation) was 33%, the “change in sperm-egg binding” value ([4]; patient 3 (low semen quality), not separated by Percoll centrifugation) was “modest decline” and the “change in proportion of motile sperm” value ([5]; 1 nM calcitriol, 24 hours at room temperature, with and without percoll, not substantially different from vehicle) was “modest decrease”. The motile sperm ([5]; 1 nM, 60 minutes, isolated by percoll gradient centrifugation (from 62%)) was 65%, the “sperm motility (mean)” value ([5]; 1 nM, 60 minutes, no percoll centrifugation (vehicle mean 50)) was 48 and the “time spermatozoa remain motile after treatment” value ([5]; Example 5 + FIG. 9) was “at least 24 hours”.

In the case of `C/C=C(/C)C(=O)O[C@H]1C(C)=C2[C@H]([C@@H]1OC(=O)CCCCCCC)[C@@](C)(OC(C)=O)C[C@H](OC(=O)CCC)[C@@]1(O)[C@H]2OC(=O)[C@@]1(C)O` [thapsigargin], the “stable plateau of calcium concentration versus baseline” value ([1]; thapsigargin 4 μM, nine minutes after exposure) is reported as 3 fold and the “effect on calcium response to 1,25(OH)2D3” value ([1]; thapsigargin <1 μM) is reported as “unable to abrogate”.
